Measurements: BindingDB's records for doi:10.1021/acs.jmedchem.6b00538 (University of Lille, 2017)

Molecular target: Fatty-acid amide hydrolase 1 (Rattus norvegicus) (UniProt P97612)
Assay: Inhibition of Wistar rat brain homogenate FAAH using [3H]AEA as substrate after 10 mins by liquid scintillation counting method

Sequence of Fatty-acid amide hydrolase 1 (Rattus norvegicus) (P97612 whole entry, looked up): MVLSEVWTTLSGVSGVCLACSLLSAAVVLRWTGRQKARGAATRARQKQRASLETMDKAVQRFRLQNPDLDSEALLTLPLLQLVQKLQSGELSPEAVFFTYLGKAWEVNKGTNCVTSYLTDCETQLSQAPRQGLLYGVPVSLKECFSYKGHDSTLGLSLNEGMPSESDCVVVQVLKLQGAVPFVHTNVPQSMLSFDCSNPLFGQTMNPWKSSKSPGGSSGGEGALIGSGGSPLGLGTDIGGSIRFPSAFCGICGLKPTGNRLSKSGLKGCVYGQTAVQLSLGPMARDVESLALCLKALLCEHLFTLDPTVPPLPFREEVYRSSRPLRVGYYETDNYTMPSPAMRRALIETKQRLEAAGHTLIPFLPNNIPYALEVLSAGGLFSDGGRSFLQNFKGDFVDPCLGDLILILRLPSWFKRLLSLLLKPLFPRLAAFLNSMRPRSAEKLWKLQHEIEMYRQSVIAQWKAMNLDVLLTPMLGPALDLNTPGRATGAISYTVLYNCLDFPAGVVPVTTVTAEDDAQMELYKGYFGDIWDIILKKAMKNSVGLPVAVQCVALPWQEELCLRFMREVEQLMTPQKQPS

IC50: 0.23 µM
Compound: COc1nn(-c2ccc(Oc3ccccc3)cc2C(F)(F)F)c(=O)o1
